Experimental data reported in patent US9937194B1, “Compounds and methods for treating inflammatory diseases” (priority 2009, dated 2018).
In brackets after ≈: the same amount, converted by molar mass.

What was measured:
IL-8 = assay: LPS-induced IL-8 release in PMA-differentiated U937 cells (ELISA); format: cell-based, human; settings: for IL-8 inhibition (%): test concentration not given
Method: (§1) Cytokine ELISA. LPS-induced IL-8, TNFα concentrations and TNFα-induced IL-8 concentrations are determined by sandwich ELISA according to the manufacturer's instructions (R&D Systems Europe). IC50 values for dexamethasone on IL-8 production are calculated using the computer program Prism 4.0 (GraphPad Software Inc., San Diego, Calif.) as a marker for steroid sensitivity.
(§2) Effects of compounds on LPS-induced IL-8 and TNFα release in PMA-differentiated U937 cells. PMA-differentiated macrophage-like cells are pretreated with compounds described herein for 1 hr, followed by LPS (100 ng/ml) stimulation for 4 hrs. LPS-induced IL-8 and TNFα release is evaluated by ELISA. Values represent means of three experiments±SEM.

H. influenzae ATCC 49247 = assay: MIC; format: cell-based
TNFα = assay: LPS-induced TNFα release in PMA-differentiated U937 cells (ELISA); format: cell-based, human; settings: for TNFα inhibition (%): test concentration not given
Method: as §1, §2

MMP9 = assay: PMA-induced MMP9 expression in U937 cells (gelatin zymography); format: cell-based, human; settings: test concentration not given; bracketed second value not explained
Method: Zymography. MMP9 enzyme activity is measured by gelatin zymography. 5 μl of supernatants were diluted with 5 μl Laemli sample buffer (Bio-Rad) and are loaded on a Novex® 10% Zymogram (Gelatin) gel (Invitrogen). After electrophoresis (90 min, 125 V, 35 mA, 5 W) gels are incubated with 1× Novex® zymogram renaturing buffer (Invitrogen) for 30 min at room temperature with gentle agitation. Gels are then rinsed in 1× Novex® zymogram developing buffer (Invitrogen) for 30 min at room temperature with gentle agitation prior to overnight incubation in the developing buffer at 37° C. After incubation the gels are stained using the colloidal blue staining kit (Invitrogen) with buffer containing 20% methanol and 70% distilled water to visualize the zymogen bands. Relevant band intensities are quantified by densitometric analysis using the UVP GelDoc-It system.
Effects of compounds on PMA-induced MMP9 expression in U937 cells. U937 cells are pretreated with compounds described herein for 1 hr, followed by PMA (50 ng/ml) treatment for 48 hrs. After 48 hrs supernatants are collected for zymography. MMP9 enzyme activity is measured by gelatin zymography. Data are expressed as fold changes against positive control treated with PMA only. Values represent means of three experiments±SEM.

[1] = format: cell-based; settings: test concentration not given
Method: The human monocytic cell line U937 and the human type II alveolar epithelial carcinoma cell line A549 were obtained from the American Type Culture Collection (ATCC, Rockville, Md.). PBMCs from COPD patients were obtained in Brompton hospital and separated by AccuSPIN (Sigma-Aldrich, Poole, UK). Cells were cultured in complete growth medium (Sigma-Aldrich) (RPMI 1640 for U937, PBMCs, and Dulbecco's modified essential medium (DMEM) for A549) supplemented with 10% fetal bovine serum (FBS) and 1% L-glutamine at 37° C. in a humidified atmosphere with 5% CO2. U937 were differentiated into an adherent macrophage-like morphology by exposure to PMA (50 or 100 ng/ml) for 48 hrs in complete growth medium. Cell viability was assessed microscopically by trypan blue staining. Cell toxicity was determined by MTT assay as needed. This study was approved by the ethics committee of the Royal Brompton Hospitals, and all subjects gave written informed consent.

HDAC activity = assay: H2O2-induced reduction of HDAC activity in PMA-differentiated U937 cells; format: cell-based, human; settings: for restoration of H2O2-reduced HDAC activity (%): test concentration not given, bracketed second value not explained
Method: In cell HDAC assay. Cells are incubated with Fluor de Lys™ substrate for 1 hr before lyses. Total HDAC activity from whole cell extracts is measured using the HDAC Fluorimetric Assay/Drug Discovery Kit (BIOMOL® International, Inc., Plymouth Meeting, Pa.).
HDAC expression: In cell HDAC activity assay: U937 is differentiated to macrophage type cells by PMA for 3 days. HDAC fluorescent substrate (Biomol) is added before exposure of oxidative stress (H2O2, 200 μM) or Tobacco smoke conditioned medium for 4 hrs. HDAC activity is measured (Biomol kit). Compounds at different concentrations are treated 20 min before oxidative stress treatment.
PMA-differentiated macrophage-like cells are pretreated with compounds described herein for 20 min. After H2O2 (200 μM) stimulation for 4 hrs, HDAC activity is assayed. Data are expressed as fold changes against positive control treated with H2O2 only. Values represent means of four experiments±SEM.

S. aureus MRSA 33591 = assay: MIC; format: cell-based
[2] = test system: S. aureus ATCC 29213 (MSSA) MLS-S; assay: MIC; format: cell-based
K. pneumonia 13883 = assay: MIC; format: cell-based; settings: in µg/mL
[3] = test system: S. typhimurium ATCC 14028; assay: MIC; format: cell-based; settings: in µg/mL
E. coli ATCC 25922 = assay: MIC; format: cell-based; settings: in µg/mL
[4] = test system: N. gonorrhoeae ATCC 49226; assay: MIC; format: cell-based; parameters: unit not given beside the values
P. aeruginosa ATCC 27853 = assay: MIC; format: cell-based
S. pneumoniae ATCC 49619 = assay: MIC; format: cell-based
E. faecium ATCC 19434 = assay: MIC; format: cell-based
S. pyogenes ATCC 19615 = assay: MIC; format: cell-based; settings: in µg/mL
Akt = assay: H2O2-induced phosphorylation of Akt in PMA-differentiated U937 cells (western blot); format: cell-based, human; settings: PMA-differentiated U937; H2O2 1 mM 30 min
Method: Cell Lysis and Western Blotting. Whole cell protein extracts are prepared using modified RIPA buffer (50 mM Tris HCL pH 7.4, 0.5% NP-40, 0.25% Na-deoxycholate, 150 mM NaCl with freshly added complete protease (Roche). Phosphatase inhibitor (Active Motif) is also added when required. Protein concentration is determined using the Bio-Rad Protein Assay (Bio-Rad). Proteins are separated by SDS-PAGE under denaturing conditions, and electrotransferred to a nitrocellulose membrane (Amersham Biosciences, Amersham, U.K.) (Western blotting). The membranes are blocked in TBS containing 0.05% Tween 20 and 5% non-fat dried milk, and then incubated with anti-pAkt or Akt antibody followed by an horse radish peroxidase-conjugated secondary antibody (Dako UK Ltd., Ely, UK). Bound antibodies are visualized by ECL Plus (GE Healthcare UK Ltd., Little Chalfont, UK). The band density is calculated by densitometry (UVP Bioimaging Systems, Cambridge, UK) using Labworks software (Ultra-Violet Products, Cambridge, UK).
Effects of compounds on H2O2-induced phosphorylation of Akt in PMA-differentiated U937 cells. PMA-differentiated macrophage-like cells are pretreated with compounds described herein for 20 min. After H2O2 (1 mM) stimulation for 30 min, cells are lysed. Phosphorylation levels of Akt are measured by western blot. Data are calculated relative to total protein, and expressed as fold changes against positive control treated with H2O2 only. Values represent means of three or four experiments±SEM.

With `CCC1OC(=O)C(C)C(OC2CC(C)(OC)C(OC(C)=O)C(C)O2)C(C)C(OC2OC(C)CC(N(C)C)C2O)C(C)(OC)CC(C)C(=O)C(C)C2N(CCCCn3cc(CN(C)C)nn3)C(=O)OC12C` (centres unmarked) [Example 24] the “IL-8 inhibition (%)” value (IL-8) was 60%, the MIC H. influenzae ATCC 49247 (H. influenzae ATCC 49247) was 64 µg/mL (≈ 64.3 µM) and the “TNFα inhibition (%)” value (TNFα) was 6%. For the same compound, the “MMP9 inhibition (%)” value (MMP9) was 11%, the “Cell Toxicity (% cell death)” value [1] was −3% and the “restoration of H2O2-reduced HDAC activity (%)” value (HDAC activity) was 85%.

With `CCC1OC(=O)C(C)C(OC2CC(C)(OC)C(OC(C)=O)C(C)O2)C(C)C(OC2OC(C)CC(N(C)C)C2O)C(C)(OC)CC(C)C(=O)C(C)C2N(CCCCn3cc(CO)nn3)C(=O)OC12C` (centres unmarked) [Example 25] the “IL-8 inhibition (%)” value (IL-8) was 26%, the MIC H. influenzae ATCC 49247 (H. influenzae ATCC 49247) was 4 µg/mL (≈ 4.13 µM) and the “TNFα inhibition (%)” value (TNFα) was 15%. For the same compound, the “MMP9 inhibition (%)” value (MMP9) was 10%, the “Cell Toxicity (% cell death)” value [1] was −8% and the “restoration of H2O2-reduced HDAC activity (%)” value (HDAC activity) was 72 (63) %.

For `CC[C@H]1OC(=O)[C@H](C)C(=O)[C@H](C)[C@@H](O[C@@H]2O[C@H](C)C[C@H](N(C)C)[C@H]2O)[C@@](C)(OC)C[C@@H](C)CN(C(=O)CCCn2cc(-c3ccc(Br)cc3)nn2)[C@H](C)[C@@H](O)[C@]1(C)O` [Example 41], the MIC S. aureus MRSA 33591 (S. aureus MRSA 33591) was over 64 µg/mL, the “IL-8 inhibition (%)” value (IL-8) was 54% and the MIC H. influenzae ATCC 49247 (H. influenzae ATCC 49247) was over 64 µg/mL. For the same compound, the MIC S. aureus ATCC 29213 (MSSA) MLS-S [2] was 64 µg/mL (≈ 72.7 µM), the “MIC K. pneumonia 13883” value (K. pneumonia 13883) was over 64 and the “MIC S. typhimurium ATCC 14028” value [3] was over 64. For the same compound, the “MIC E. coli ATCC 25922” value (E. coli ATCC 25922) was over 64, the “MIC N. gonorrhoeae ATCC 49226” value [4] was 64 and the “TNFα inhibition (%)” value (TNFα) was 45%. The MIC P. aeruginosa ATCC 27853 (P. aeruginosa ATCC 27853) was over 64 µg/mL, the MIC S. pneumoniae ATCC 49619 (S. pneumoniae ATCC 49619) was 32 µg/mL (≈ 36.3 µM) and the “MMP9 inhibition (%)” value (MMP9) was 39 (41) %. For the same compound, the MIC E. faecium ATCC 19434 (E. faecium ATCC 19434) was 64 µg/mL (≈ 72.7 µM), the “Cell Toxicity (% cell death)” value [1] was 8% and the “MIC S. pyogenes ATCC 19615” value (S. pyogenes ATCC 19615) was 64. The “restoration of H2O2-reduced HDAC activity (%)” value (HDAC activity) was 14%.

With `CCC1OC(=O)C(C)C(OC2CC(C)(OC)C(O)C(C)O2)C(C)C(OC2OC(C)CC(N(C)C)C2O)C(C)(O)CC(C)CN(C)C(C)C2OC(=O)OC12C` (centres unmarked) [Example 42] the MIC S. aureus MRSA 33591 (S. aureus MRSA 33591) was over 64 µg/mL, the “IL-8 inhibition (%)” value (IL-8) was −27% and the MIC H. influenzae ATCC 49247 (H. influenzae ATCC 49247) was 4 µg/mL (≈ 5.16 µM). The MIC S. aureus ATCC 29213 (MSSA) MLS-S [2] was 1 µg/mL (≈ 1.29 µM), the “MIC K. pneumonia 13883” value (K. pneumonia 13883) was 8-32 and the “MIC S. typhimurium ATCC 14028” value [3] was 8-16. The “MIC E. coli ATCC 25922” value (E. coli ATCC 25922) was 8-32, the “MIC N. gonorrhoeae ATCC 49226” value [4] was at most 0.125 and the “TNFα inhibition (%)” value (TNFα) was 8%. The MIC P. aeruginosa ATCC 27853 (P. aeruginosa ATCC 27853) was over 64 µg/mL, the MIC S. pneumoniae ATCC 49619 (S. pneumoniae ATCC 49619) was at most 0.125 µg/mL and the “MMP9 inhibition (%)” value (MMP9) was −2%. For the same compound, the MIC E. faecium ATCC 19434 (E. faecium ATCC 19434) was 8 µg/mL (≈ 10.3 µM), the “Cell Toxicity (% cell death)” value [1] was −8% and the “MIC S. pyogenes ATCC 19615” value (S. pyogenes ATCC 19615) was at most 0.125. The “restoration of H2O2-reduced HDAC activity (%)” value (HDAC activity) was 104 (79) %.

With `CC[C@H]1OC(=O)[C@H](C)C(=O)[C@H](C)[C@@H](O[C@@H]2O[C@H](C)C[C@H](N(C)C)[C@H]2O)[C@](C)(OC)C[C@@H](C)C(=O)[C@H](C)[C@H]2N(CCCCn3cnc(-c4cccnc4)c3)C(=O)O[C@]12C` [TEL, telithromycin, reference compound] the “inhibition of LPS-induced IL-8 release compared with Example 33” value (IL-8; LPS 100 ng/ml 4 hrs) was “did not show any inhibition at any concentration tested”, the “inhibition of Akt phosphorylation compared with Example 33” value (Akt) was “only at much higher concentrations than Example 33” and the IC50 (TNFα; Homo sapiens, U-937, LPS-induced TNFα release, PMA-differentiated U937, NA = inactive) was 231 ± 37 µM. The “inhibition of LPS-induced TNFα release compared with Example 33” value (TNFα; LPS 100 ng/ml 4 hrs) was “at higher concentrations than Example 33”, the “restoration of HDAC activity compared with Example 33” value (HDAC activity; PMA-differentiated U937, H2O2 200 μM 4 hrs) was “only at much higher doses than Example 33” and the “HDAC activity reached compared with untreated controls” value (HDAC activity; PMA-differentiated U937, H2O2 200 μM, comparators at highest doses tested) was “only restore HDAC activity to levels comparable to untreated controls”.
